Experimental data published in paper PMC5433425 (PeerJ, 2017).
Values joined by “and” are separate entries in the source; they are usually repeats but may differ in a detail not shown here. Identical values can stand only once.

How the values were obtained:
E. coli AG100 [1] = assay: Time-kill kinetics (CFU); type: cell-based, Escherichia coli; settings: AG100
Description: A drug-free control was included in the assay to monitor the normal growth of the strain. Cultures were sampled for CFU determination after 0, 1, 2, 3, 4, 5, 6, and 24 h of incubation at 37 °C with shaking. For CFU determination, 10-fold serial dilutions were made in a saline solution and 20 µl of each solution was placed onto the surface of a Mueller–Hinton agar plate. The colonies were counted after the incubation of the plates at 37 °C for 24 h. The limit of detection of the assay was 17 CFU/ml. Each assay was repeated at least twice.

E. coli AG100 [2] = assay: Intracellular ATP levels determination; type: cell-based, Escherichia coli
Description: The ATP levels were measured using the ATP Determination Kit (Invitrogen, Life Technologies, Paisley, UK) according to the manufacturer’s instructions. […] A drug-free control was included in the assay to monitor the normal growth of the strain. Aliquots of bacteria were collected at 0, 1, 2, 3, 4, 5, 6, and 24 h of incubation at 37 °C, with shaking, inactivated by heating and immediately deep frozen. […] CPZ and PAβN were included for comparison.

Question: Which results are given for `CCCOc1ccc(-c2cc(OCCN3CCNCC3)c3ccccc3n2)cc1` [PQQ4R, 4-(2-(piperazin-1-yl)ethoxy)-2-(4-propoxyphenyl) quinolone]?
Answer: CFU count Mean (E. coli AG100 [1]; 4xMIC, T6 (6 h)): 0.0E+00; CFU count - Strain dilution (E. coli AG100 [1]; 4xMIC, T24 (24 h)): 0; CFU count - absolute values (E. coli AG100 [1]; 4xMIC, T24 (24 h)): 0; CFU count Log10 (E. coli AG100 [1]; 4xMIC, T24 (24 h)): 0; CFU count Mean (E. coli AG100 [1]; 4xMIC, T24 (24 h)): 0.0E+00; CFU count - Strain dilution (E. coli AG100 [1]; 8xMIC, T1 (1 h)): 0; CFU count - absolute values (E. coli AG100 [1]; 8xMIC, T1 (1 h)): 0; CFU count Log10 (E. coli AG100 [1]; 8xMIC, T1 (1 h)): 0; CFU count Mean (E. coli AG100 [1]; 8xMIC, T1 (1 h)): 0.0E+00; CFU count - Strain dilution (E. coli AG100 [1]; 8xMIC, T2 (2 h)): 0; CFU count - absolute values (E. coli AG100 [1]; 8xMIC, T2 (2 h)): 0; CFU count Log10 (E. coli AG100 [1]; 8xMIC, T2 (2 h)): 0; CFU count Mean (E. coli AG100 [1]; 8xMIC, T2 (2 h)): 0.0E+00; CFU count - Strain dilution (E. coli AG100 [1]; 8xMIC, T3 (3 h)): 0; CFU count - absolute values (E. coli AG100 [1]; 8xMIC, T3 (3 h)): 0; CFU count Log10 (E. coli AG100 [1]; 8xMIC, T3 (3 h)): 0; CFU count Mean (E. coli AG100 [1]; 8xMIC, T3 (3 h)): 0.0E+00; CFU count - Strain dilution (E. coli AG100 [1]; 8xMIC, T4 (4 h)): 0; CFU count - absolute values (E. coli AG100 [1]; 8xMIC, T4 (4 h)): 0; CFU count Log10 (E. coli AG100 [1]; 8xMIC, T4 (4 h)): 0; CFU count Mean (E. coli AG100 [1]; 8xMIC, T4 (4 h)): 0.0E+00; CFU count - Strain dilution (E. coli AG100 [1]; 8xMIC, T5 (5 h)): 0; CFU count - absolute values (E. coli AG100 [1]; 8xMIC, T5 (5 h)): 0; CFU count Log10 (E. coli AG100 [1]; 8xMIC, T5 (5 h)): 0; CFU count Mean (E. coli AG100 [1]; 8xMIC, T5 (5 h)): 0.0E+00; CFU count - Strain dilution (E. coli AG100 [1]; 8xMIC, T6 (6 h)): 0; CFU count - absolute values (E. coli AG100 [1]; 8xMIC, T6 (6 h)): 0; CFU count Log10 (E. coli AG100 [1]; 8xMIC, T6 (6 h)): 0; CFU count Mean (E. coli AG100 [1]; 8xMIC, T6 (6 h)): 0.0E+00; CFU count - Strain dilution (E. coli AG100 [1]; 8xMIC, T24 (24 h)): 0; CFU count - absolute values (E. coli AG100 [1]; 8xMIC, T24 (24 h)): 0; CFU count Log10 (E. coli AG100 [1]; 8xMIC, T24 (24 h)): 0; CFU count Mean (E. coli AG100 [1]; 8xMIC, T24 (24 h)): 0.0E+00; CFU count Log10 (E. coli AG100 [1]; MIC, T1 (1 h)): 3.007; CFU count Mean (E. coli AG100 [1]; MIC, T1 (1 h)): 1.0E+03; CFU count Log10 (E. coli AG100 [1]; MIC, T2 (2 h)): 2.336; CFU count Mean (E. coli AG100 [1]; MIC, T2 (2 h)): 2.2E+02; CFU count Log10 (E. coli AG100 [1]; MIC, T3 (3 h)): 1.222; CFU count Mean (E. coli AG100 [1]; MIC, T3 (3 h)): 1.7E+01; CFU count - Strain dilution (E. coli AG100 [1]; MIC, T4 (4 h)): 0; CFU count - absolute values (E. coli AG100 [1]; MIC, T4 (4 h)): 0; CFU count Log10 (E. coli AG100 [1]; MIC, T4 (4 h)): 0; CFU count Mean (E. coli AG100 [1]; MIC, T4 (4 h)): 0.0E+00; CFU count - Strain dilution (E. coli AG100 [1]; MIC, T5 (5 h)): 0; CFU count - absolute values (E. coli AG100 [1]; MIC, T5 (5 h)): 0; CFU count Log10 (E. coli AG100 [1]; MIC, T5 (5 h)): 0; CFU count Mean (E. coli AG100 [1]; MIC, T5 (5 h)): 0.0E+00; CFU count - Strain dilution (E. coli AG100 [1]; MIC, T6 (6 h)): 0; CFU count - absolute values (E. coli AG100 [1]; MIC, T6 (6 h)): 0; CFU count Log10 (E. coli AG100 [1]; MIC, T6 (6 h)): 0; CFU count Mean (E. coli AG100 [1]; MIC, T6 (6 h)): 0.0E+00; CFU count - Strain dilution (E. coli AG100 [1]; MIC, T24 (24 h)): 0; CFU count - absolute values (E. coli AG100 [1]; MIC, T24 (24 h)): 0; CFU count Log10 (E. coli AG100 [1]; MIC, T24 (24 h)): 0; CFU count Mean (E. coli AG100 [1]; MIC, T24 (24 h)): 0.0E+00; reduction in bacterial viability (E. coli AG100 [1]; half MIC): approx. 1 log; ATP levels during the first 3 h of exposure (E. coli AG100 [2]; AG100, 320 µM (1/2 MIC) and 640 µM (MIC), same level as drug-free control): remained constant; ATP production less than that of the drug-free control (E. coli AG100 [2]; AG100, half MIC (320 µM), 24 h of exposure): 80%; ATP - luciferase:Lum (E. coli AG100 [2]; PQQ4R MIC, T1): 438 and 716; ATP - luciferase:Lum (E. coli AG100 [2]; PQQ4R MIC, T2): 453 and 417; ATP - luciferase:Lum (E. coli AG100 [2]; PQQ4R MIC, T3): 588 and 696; ATP - luciferase:Lum (E. coli AG100 [2]; PQQ4R MIC, T4): 454 and 413; ATP - luciferase:Lum (E. coli AG100 [2]; PQQ4R MIC, T5): 701 and 675; ATP - luciferase:Lum (E. coli AG100 [2]; PQQ4R MIC, T6): 445 and 588; ATP - luciferase:Lum (E. coli AG100 [2]; PQQ4R MIC, T24): 545 and 530; ATP - luciferase:Lum (E. coli AG100 [2]; PQQ4R half MIC, T1): 406 and 431; ATP - luciferase:Lum (E. coli AG100 [2]; PQQ4R half MIC, T2): 561 and 463; ATP - luciferase:Lum (E. coli AG100 [2]; PQQ4R half MIC, T3): 373 and 549; ATP - luciferase:Lum (E. coli AG100 [2]; PQQ4R half MIC, T4): 467 and 479; ATP - luciferase:Lum (E. coli AG100 [2]; PQQ4R half MIC, T5): 511 and 436; ATP - luciferase:Lum (E. coli AG100 [2]; PQQ4R half MIC, T6): 560 and 587; ATP - luciferase:Lum (E. coli AG100 [2]; PQQ4R half MIC, T24): 4358 and 4198
